In one test the target is T1, Cysteine protease ATG4B (Homo sapiens, UniProt Q9Y4P1).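 Further: Fluorescence-based dose-response confirmation assay measuring inhibition of ATG4B activity.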
T1 sequence (Q9Y4P1 whole entry): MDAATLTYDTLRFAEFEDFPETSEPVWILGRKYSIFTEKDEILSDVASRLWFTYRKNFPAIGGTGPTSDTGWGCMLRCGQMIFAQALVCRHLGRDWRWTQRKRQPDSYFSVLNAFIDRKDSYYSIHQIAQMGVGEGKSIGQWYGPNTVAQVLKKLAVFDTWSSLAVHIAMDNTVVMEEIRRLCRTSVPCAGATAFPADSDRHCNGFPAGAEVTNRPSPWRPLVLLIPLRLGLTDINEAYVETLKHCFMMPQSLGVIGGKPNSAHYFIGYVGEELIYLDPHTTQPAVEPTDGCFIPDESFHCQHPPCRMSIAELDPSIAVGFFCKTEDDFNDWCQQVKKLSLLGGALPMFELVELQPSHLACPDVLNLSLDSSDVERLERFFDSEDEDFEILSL
The class given is functional.

Test [1] deals with Streptococcus sp. 'group A'. Briefly: growth inhibition of control SK(-) GAS strain, dose response, counter-screen for streptokinase expression inhibitor project, luminescence, kanamycin, BacTiterGlo, confirmation (AID 1900). Type of test: functional, organism-based. (The purpose of a counterscreen is to sort out artefacts and off-target activity.)
Test [2] concerns the target T2, Histone-lysine N-methyltransferase NSD2 (Homo sapiens, UniProt O96028).
T2 sequence (O96028 whole entry): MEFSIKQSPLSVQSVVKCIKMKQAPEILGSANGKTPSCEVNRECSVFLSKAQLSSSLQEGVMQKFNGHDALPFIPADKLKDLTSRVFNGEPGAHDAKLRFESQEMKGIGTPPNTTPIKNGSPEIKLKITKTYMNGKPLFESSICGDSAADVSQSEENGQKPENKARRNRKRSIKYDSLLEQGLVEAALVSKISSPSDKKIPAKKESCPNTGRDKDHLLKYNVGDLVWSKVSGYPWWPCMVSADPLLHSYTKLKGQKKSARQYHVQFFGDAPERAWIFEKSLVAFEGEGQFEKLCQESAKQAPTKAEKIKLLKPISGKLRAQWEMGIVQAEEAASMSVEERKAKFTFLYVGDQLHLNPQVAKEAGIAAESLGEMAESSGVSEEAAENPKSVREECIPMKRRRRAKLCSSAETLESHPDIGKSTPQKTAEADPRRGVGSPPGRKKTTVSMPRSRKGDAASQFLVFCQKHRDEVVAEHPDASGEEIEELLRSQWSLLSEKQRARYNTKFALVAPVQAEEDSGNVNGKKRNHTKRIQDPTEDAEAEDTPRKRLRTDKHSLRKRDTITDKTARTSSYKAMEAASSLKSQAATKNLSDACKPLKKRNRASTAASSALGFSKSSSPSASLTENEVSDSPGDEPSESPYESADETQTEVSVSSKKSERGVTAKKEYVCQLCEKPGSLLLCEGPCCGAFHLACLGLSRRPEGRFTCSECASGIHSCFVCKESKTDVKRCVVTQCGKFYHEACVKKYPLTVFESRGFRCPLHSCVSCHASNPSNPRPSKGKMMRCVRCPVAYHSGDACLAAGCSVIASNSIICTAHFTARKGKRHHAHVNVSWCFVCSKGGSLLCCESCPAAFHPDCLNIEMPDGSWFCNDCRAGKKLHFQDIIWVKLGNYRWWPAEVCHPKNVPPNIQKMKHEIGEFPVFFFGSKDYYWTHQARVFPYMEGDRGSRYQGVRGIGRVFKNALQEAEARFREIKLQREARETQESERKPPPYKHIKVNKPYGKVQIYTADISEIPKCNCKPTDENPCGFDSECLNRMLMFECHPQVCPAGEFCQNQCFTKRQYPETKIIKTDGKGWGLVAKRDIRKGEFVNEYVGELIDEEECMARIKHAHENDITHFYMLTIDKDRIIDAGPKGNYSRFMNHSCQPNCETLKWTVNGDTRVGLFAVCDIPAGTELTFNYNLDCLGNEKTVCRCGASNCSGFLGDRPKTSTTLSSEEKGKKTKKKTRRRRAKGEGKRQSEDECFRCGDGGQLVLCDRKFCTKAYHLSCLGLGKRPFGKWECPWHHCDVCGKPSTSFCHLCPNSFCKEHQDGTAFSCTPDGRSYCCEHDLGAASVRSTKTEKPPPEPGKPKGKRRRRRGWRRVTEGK
Type of test: biochemical.

The subject of the next test is HeLa. As to the kind of experiment: Cytotoxicity counterscreen assay for transcriptional activators of heat shock protein 70 (Hsp70). [Related pubchem assays: 1203, 1252 ]. The class given is functional. As to conditions: Homo sapiens.
The target in test [3] is Sphingosine 1-phosphate receptor 4 (Homo sapiens, UniProt O95977). Briefly: Fluorescence dose response cell-based high throughput screening assay for antagonists of the Sphingosine 1-Phosphate Receptor 4 (S1P4). [Related pubchem assays: 1524 (Confirmation in triplicates.), 1510 (Primary screen.)]. The class given is functional.
Sphingosine 1-phosphate receptor 4, sequence (O95977 whole entry): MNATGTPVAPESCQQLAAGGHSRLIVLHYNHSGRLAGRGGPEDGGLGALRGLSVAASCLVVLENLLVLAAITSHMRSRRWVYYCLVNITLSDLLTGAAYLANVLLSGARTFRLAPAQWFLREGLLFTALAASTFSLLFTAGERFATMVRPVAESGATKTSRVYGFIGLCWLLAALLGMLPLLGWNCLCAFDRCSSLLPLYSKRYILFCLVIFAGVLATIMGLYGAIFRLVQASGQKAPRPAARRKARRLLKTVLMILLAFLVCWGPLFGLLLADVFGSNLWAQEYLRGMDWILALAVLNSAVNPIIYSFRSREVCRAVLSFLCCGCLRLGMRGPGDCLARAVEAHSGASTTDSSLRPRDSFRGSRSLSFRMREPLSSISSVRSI
The target in another test is T3, Streptokinase A (Streptococcus pyogenes serotype M1, UniProt P10520).
T3 sequence (P10520 whole entry): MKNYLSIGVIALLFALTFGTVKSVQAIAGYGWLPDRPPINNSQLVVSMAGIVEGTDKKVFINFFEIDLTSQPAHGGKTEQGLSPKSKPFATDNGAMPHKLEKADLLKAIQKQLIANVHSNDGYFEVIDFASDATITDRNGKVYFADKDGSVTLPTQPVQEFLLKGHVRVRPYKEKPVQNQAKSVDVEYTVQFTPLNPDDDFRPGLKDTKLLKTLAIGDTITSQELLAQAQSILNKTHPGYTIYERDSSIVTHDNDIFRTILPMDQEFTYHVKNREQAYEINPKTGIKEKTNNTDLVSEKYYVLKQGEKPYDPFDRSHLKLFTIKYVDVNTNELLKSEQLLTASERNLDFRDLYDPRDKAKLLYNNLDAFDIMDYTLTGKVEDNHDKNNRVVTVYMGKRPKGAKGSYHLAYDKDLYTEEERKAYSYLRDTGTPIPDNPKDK
As to the kind of experiment: S. pyogenes streptokinase expression inhibitors, potency, dose response, plasminogen activation absorbance, OD405 (AID 1914).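 Further: secreted streptokinase activity via plasminogen activation per viability signal from cell pellet.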 Type of test: functional, Streptococcus pyogenes M1 GAS.

Test [4] addresses T4, Type-1 angiotensin II receptor (Homo sapiens, UniProt P30556).
T4 sequence (P30556 whole entry): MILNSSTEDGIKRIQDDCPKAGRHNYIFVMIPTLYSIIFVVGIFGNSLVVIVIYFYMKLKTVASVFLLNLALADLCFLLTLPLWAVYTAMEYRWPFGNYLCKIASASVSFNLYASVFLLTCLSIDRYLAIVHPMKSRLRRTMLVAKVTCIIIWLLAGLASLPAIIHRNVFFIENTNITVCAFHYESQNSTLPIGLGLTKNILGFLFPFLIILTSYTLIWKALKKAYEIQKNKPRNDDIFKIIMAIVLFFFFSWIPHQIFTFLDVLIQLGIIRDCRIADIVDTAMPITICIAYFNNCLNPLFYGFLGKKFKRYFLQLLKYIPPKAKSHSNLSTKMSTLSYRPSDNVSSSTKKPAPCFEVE
Briefly: AT1 receptor antagonists, dose response, selectivity assay for APJ receptor antagonist project, cell-based, uHTS hits (AID 463214).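 Further: antagonist potency against angiotensin II stimulated AT1 response.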 Type of test: functional.

In test [5] the target is Serine/threonine-protein phosphatase (Homo sapiens, UniProt Q9BPW0). Briefly: PP5 phosphatase inhibitors, dose response, biochemical, fluorescence (AID 2395).
Serine/threonine-protein phosphatase, sequence (Q9BPW0 whole entry): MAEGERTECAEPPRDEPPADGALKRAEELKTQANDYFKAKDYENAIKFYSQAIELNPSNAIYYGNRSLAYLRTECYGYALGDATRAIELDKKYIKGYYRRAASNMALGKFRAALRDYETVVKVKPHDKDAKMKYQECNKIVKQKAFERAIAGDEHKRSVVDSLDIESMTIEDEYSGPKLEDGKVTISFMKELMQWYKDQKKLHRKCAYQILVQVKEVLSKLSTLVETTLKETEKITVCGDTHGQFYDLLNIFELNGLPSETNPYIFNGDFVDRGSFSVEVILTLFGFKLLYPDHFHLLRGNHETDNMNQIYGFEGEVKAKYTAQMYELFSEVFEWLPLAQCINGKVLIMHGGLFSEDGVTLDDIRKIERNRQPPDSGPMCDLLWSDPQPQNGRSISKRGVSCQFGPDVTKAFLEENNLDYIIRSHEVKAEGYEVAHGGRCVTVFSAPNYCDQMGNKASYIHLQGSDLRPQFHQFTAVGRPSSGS

Calls of active or inactive are those of the source. A value given as a limit tells only on which side of the number the result lay.
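Wherever CC50 is given: cells exposed to compound for 16 hours before readout.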

For `Cc1ccccc1NC1=C/C(=N\S(=O)(=O)c2ccc(C(=O)O)cc2)c2ccccc2C1=O`, the IC50 at Cysteine protease ATG4B was 5.85 µM (active). In addition, the EC50 in test [1] was 1.67 µM (active). In addition, the half-maximal activity concentration (AC50) in test [2] is 0.117 µM (active).
`COC(=O)C[C@]1(C(=O)OC)CN(C#N)N(c2ccc(Cl)cc2)C12c1ccccc1-c1ccccc12`: the CC50 with HeLa is 3.55 µM (active). Further, in test [3], the IC50 is 0.341 µM (active).
As for `COc1ccc(-c2cc(-c3ccc(C)cc3)[nH]n2)c(O)c1`, the EC50 at Streptokinase A is > 150 µM (not active); in test [1] it was 11 µM (active).
`CCCCn1c(NC(=O)c2ccco2)c(C(=O)OCC)c2nc3ccccc3nc21`: the IC50 is 10.4 µM (active) in test [4] and 10.3 µM (not active) in test [5]. Moreover, the AC50 in test [2] was 2.94 µM (active).

For orientation: IC50 means the midpoint of a concentration-inhibition curve. A word on the EC50: it is the midpoint of the concentration-response curve. The AC50 is the concentration giving half of the maximal activity seen. The CC50 is the concentration that lowers cell viability or growth by half.

(Values after ChEMBL document CHEMBL1201862, “PubChem BioAssay data set” (2004).)
